Data on 5 molecules can be found in patent US9474790B2, “Stable, protracted GLP-1/glucagon receptor co-agonists for medical use” (Novo Nordisk A/S, priority 2013, dated 2016).

Usually EC50 stands for the midpoint of the concentration-response curve.

The structures appear in SMILES notation. Numbered stars: 1 amine (or outer) side, 2 acyl side, 3 side chain; on linkers, the order of the positions; unused ones are H or OH. Bridge positions count the residues as written; N and C are the ends. Square brackets hold non-standard residues; d marks the D form. Side chains are listed from the residue outwards. Peptide text beside a SMILES is read from it. I, II: the chains in the order shown. * marks the point of attachment. C18 diacid = O=C(O)CCCCCCCCCCCCCCCCC(=O)*; γGlu = O=C(O)[C@H](CCC(=O)[*:2])N[*:1]; AEEA = NCCOCCOCC(=O)O; Aib = CC(C)(N)C(=O)O

Data set [1] is described as follows: Thioflavin T (ThT) fibrillation assay for physical stability. To be noted: 250 μM in 10 mM HEPES buffer, pH 7.5, 37° C., shaking 960 rpm. In kind it is physicochemical. Put shortly: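 Peptide at 250 μM in 10 mM HEPES pH 7.5 with 1 μM ThT, at 37° C with 960 rpm orbital shaking. Fluorescence (ex 444/em 485 nm) read every 20 min after 10 min pre-incubation; sigmoidal fit gives lag time (t0−2τ) and kapp (1/τ). Recovery is RP-HPLC peptide in the centrifuged, 0.22 μm-filtered supernatant as % of initial.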

Another data set deals with T1, human GLP-1 receptor (Homo sapiens, UniProt P43220).
T1 construct: expressed in transfected cells; host or cells: BHK cells (parent BHKTS13), clone FCW467-12A/KZ10-1, with CRE luciferase
T1 sequence (P43220 24-463): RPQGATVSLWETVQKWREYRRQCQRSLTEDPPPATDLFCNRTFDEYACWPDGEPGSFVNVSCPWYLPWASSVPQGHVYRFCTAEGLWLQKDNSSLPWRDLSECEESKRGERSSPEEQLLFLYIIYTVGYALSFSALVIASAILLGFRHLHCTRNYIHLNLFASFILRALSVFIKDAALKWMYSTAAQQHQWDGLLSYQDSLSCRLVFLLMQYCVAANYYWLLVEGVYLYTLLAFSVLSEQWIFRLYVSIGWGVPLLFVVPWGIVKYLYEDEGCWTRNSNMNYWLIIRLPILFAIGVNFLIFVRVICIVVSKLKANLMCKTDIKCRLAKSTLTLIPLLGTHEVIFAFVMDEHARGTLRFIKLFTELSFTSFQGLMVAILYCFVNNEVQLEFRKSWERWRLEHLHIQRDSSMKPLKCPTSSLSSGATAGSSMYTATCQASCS
The data set is described as follows: GLP-1 receptor potency, CRE luciferase reporter gene assay in BHK cells. As to conditions: BHK cells expressing human GLP-1 receptor, read-out: EC50 GLP-1R. In kind it is cell-based. Put shortly: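 BHK cells stably expressing human GLP-1 receptor with CRE-luciferase reporter, 5×10EE3 cells/well in phenol red-free DMEM with 10 mM Hepes, 2% ovalbumin, 0.2% Pluronic F-68. Compounds at final 1×10EE-6 to 1×10EE-13 M, 3 h at 37° C; steadylite luminescence; EC50 by four-parameter fit, in pM.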

Consider `CC(C)C[C@H](NC(=O)[C@H](Cc1ccc(O)cc1)NC(=O)[C@H](CCCCN)NC(=O)[C@H](CO)NC(=O)[C@H](CC(C)C)NC(=O)[C@H](CC(=O)O)NC(=O)[C@H](CO)NC(=O)[C@@H](NC(=O)[C@H](Cc1ccccc1)NC(=O)[C@@H](NC(=O)CNC(=O)[C@H](Cc1c[nH]cn1)NC(=O)C(C)(C)NC(=O)[C@@H](N)Cc1c[nH]cn1)[C@@H](C)O)[C@@H](C)O)C(=O)N[C@@H](CCC(=O)O)C(=O)N[C@@H](CO)C(=O)N[C@@H](CCCNC(=N)N)C(=O)N[C@@H](CCCNC(=N)N)C(=O)N[C@@H](C)C(=O)N[C@@H](CCCNC(=N)N)C(=O)N[C@@H](CCC(=O)O)C(=O)N[C@@H](Cc1ccccc1)C(=O)N[C@H](C(=O)N[C@@H](CCC(N)=O)C(=O)N[C@@H](Cc1c[nH]c2ccccc12)C(=O)N[C@@H](CC(C)C)C(=O)N[C@@H](CC(C)C)C(=O)N[C@@H](CCCCNC(=O)CC[C@H](NC(=O)COCCOCCNC(=O)COCCOCCNC(=O)CC[C@H](NC(=O)CC[C@H](NC(=O)CCCCCCCCCCCCCCCCC(=O)O)C(=O)O)C(=O)O)C(=O)O)C(=O)N[C@H](C(N)=O)[C@@H](C)O)C(C)C` [Example 30, N^ε28-[(4S)-4-carboxy-4-[[2-[2-[2-[[2-[2-[2-[[(4S)-4-carboxy-4-[[(4S)-4-carboxy-4-(17-carboxyheptadecanoylamino)butanoyl]amino]butanoyl]amino]ethoxy]ethoxy]acetyl]amino]ethoxy]ethoxy]acetyl]amino]butanoyl]-[Aib2,His3,Leu10,Glu15,Arg20,Glu21,Leu27,Lys28]-Glucagon amide] (H-H[Aib]HGTFTSDLSKYLESRRAREFVQWLLK([γGlu-AEEA-AEEA-γGlu-γGlu-C18 diacid])T-NH2; N-terminus assumed), for which, in data set [1], the THT assay Lag time (Ex. 76) was 45 h.
On the same count and under the same terms, to `CC(C)C[C@H](NC(=O)[C@H](Cc1ccc(O)cc1)NC(=O)[C@H](CCCCN)NC(=O)[C@H](CO)NC(=O)[C@H](CC(C)C)NC(=O)[C@H](CC(=O)O)NC(=O)[C@H](CO)NC(=O)[C@@H](NC(=O)[C@H](Cc1ccccc1)NC(=O)[C@@H](NC(=O)CNC(=O)[C@H](CCC(N)=O)NC(=O)C(C)(C)NC(=O)[C@@H](N)Cc1c[nH]cn1)[C@@H](C)O)[C@@H](C)O)C(=O)N[C@@H](CC(=O)O)C(=O)N[C@@H](CO)C(=O)N[C@@H](CCCNC(=N)N)C(=O)N[C@@H](CCCNC(=N)N)C(=O)N[C@@H](C)C(=O)N[C@@H](CCCNC(=N)N)C(=O)N[C@@H](CCC(=O)O)C(=O)N[C@@H](Cc1ccccc1)C(=O)N[C@H](C(=O)N[C@@H](CCC(N)=O)C(=O)N[C@@H](Cc1c[nH]c2ccccc12)C(=O)N[C@@H](CC(C)C)C(=O)N[C@@H](CC(C)C)C(=O)N[C@@H](CCCCNC(=O)CC[C@H](NC(=O)CC[C@H](NC(=O)COCCOCCNC(=O)COCCOCCNC(=O)CC[C@H](NC(=O)CCCCCCCCCCCCCCCCC(=O)O)C(=O)O)C(=O)O)C(=O)O)C(=O)N[C@H](C(N)=O)[C@@H](C)O)C(C)C` [Example 56, N^ε28-[(4S)-4-carboxy-4-[[(4S)-4-carboxy-4-[[2-[2-[2-[[2-[2-[2-[[(4S)-4-carboxy-4-(17-carboxyheptadecanoylamino)butanoyl]amino]ethoxy]ethoxy]acetyl]amino]ethoxy]ethoxy]acetyl]amino]butanoyl]amino]butanoyl]-[Aib2,Leu10,Arg20,Glu21,Leu27,Lys28]-Glucagon amide] (H-H[Aib]QGTFTSDLSKYLDSRRAREFVQWLLK([γGlu-γGlu-AEEA-AEEA-γGlu-C18 diacid])T-NH2) belongs 45 h; to `CC(C)C[C@H](NC(=O)[C@H](Cc1c[nH]c2ccccc12)NC(=O)[C@H](C)NC(=O)[C@@H](NC(=O)[C@H](Cc1ccccc1)NC(=O)[C@H](CCC(=O)O)NC(=O)[C@H](CCCNC(=N)N)NC(=O)[C@H](C)NC(=O)[C@H](CCCNC(=N)N)NC(=O)[C@H](CCCNC(=N)N)NC(=O)[C@H](CCCCNC(=O)CC[C@H](NC(=O)COCCOCCNC(=O)COCCOCCNC(=O)CC[C@H](NC(=O)CC[C@H](NC(=O)CCCCCCCCCCCCCCCCC(=O)O)C(=O)O)C(=O)O)C(=O)O)NC(=O)[C@H](CC(=O)O)NC(=O)[C@H](CC(C)C)NC(=O)[C@H](Cc1ccc(O)cc1)NC(=O)[C@H](CCCCN)NC(=O)[C@H](CO)NC(=O)[C@H](CC(C)C)NC(=O)[C@H](CC(=O)O)NC(=O)[C@H](CO)NC(=O)[C@@H](NC(=O)[C@H](Cc1ccccc1)NC(=O)[C@@H](NC(=O)CNC(=O)[C@H](CCC(N)=O)NC(=O)C(C)(C)NC(=O)[C@@H](N)Cc1c[nH]cn1)[C@@H](C)O)[C@@H](C)O)C(C)C)C(=O)N[C@@H](CC(C)C)C(=O)N[C@@H](CC(N)=O)C(=O)N[C@H](C(N)=O)[C@@H](C)O` [Example 19, N^ε29-[(4S)-4-carboxy-4-[[2-[2-[2-[[2-[2-[2-[[(4S)-4-carboxy-4-[[(4S)-4-carboxy-4-(17-carboxyheptadecanoylamino)butanoyl]amino]butanoyl]amino]ethoxy]ethoxy]acetyl]amino]ethoxy]ethoxy]acetyl]amino]butanoyl]-[Aib2,Leu10,Lys16,Arg20,Glu21,Ala24,Leu27]-Glucagon amide] (H-H[Aib]QGTFTSDLSKYLDK([γGlu-AEEA-AEEA-γGlu-γGlu-C18 diacid])RRAREFVAWLLNT-NH2; N-terminus assumed), 6.7 h; to `CC(C)C[C@H](NC(=O)[C@H](Cc1ccc(O)cc1)NC(=O)[C@H](CCCCN)NC(=O)[C@H](CO)NC(=O)[C@H](CC(C)C)NC(=O)[C@H](CC(=O)O)NC(=O)[C@H](CO)NC(=O)[C@@H](NC(=O)[C@H](Cc1ccccc1)NC(=O)[C@@H](NC(=O)CNC(=O)[C@H](CCC(N)=O)NC(=O)C(C)(C)NC(=O)[C@@H](N)Cc1c[nH]cn1)[C@@H](C)O)[C@@H](C)O)C(=O)N[C@@H](CCC(=O)O)C(=O)N[C@@H](CO)C(=O)N[C@@H](CCCCN)C(=O)N[C@@H](CCCNC(=N)N)C(=O)N[C@@H](C)C(=O)N[C@@H](CCCNC(=N)N)C(=O)N[C@@H](CCC(=O)O)C(=O)N[C@@H](Cc1ccccc1)C(=O)N[C@H](C(=O)N[C@@H](CCC(N)=O)C(=O)N[C@@H](Cc1c[nH]c2ccccc12)C(=O)N[C@@H](CC(C)C)C(=O)N[C@@H](CC(C)C)C(=O)N[C@@H](CCCCNC(=O)CNC(=O)[C@H](CO)NC(=O)[C@H](CCC(=O)O)NC(=O)CNC(=O)[C@H](CO)NC(=O)CC[C@H](NC(=O)CC[C@H](NC(=O)CCCCCCCCCCCCCCCCC(=O)O)C(=O)O)C(=O)O)C(=O)N[C@H](C(N)=O)[C@@H](C)O)C(C)C` [Example 25, N^ε28-[2-[[(2S)-2-[[(2S)-4-carboxy-2-[[2-[[(2S)-2-[[(4S)-4-carboxy-4-[[(4S)-4-carboxy-4-(17-carboxyheptadecanoylamino)butanoyl]amino]butanoyl]amino]-3-hydroxypropanoyl]amino]acetyl]amino]butanoyl]amino]-3-hydroxypropanoyl]amino]acetyl]-[Aib2,Leu10,Glu15,Lys17,Arg20,Glu21,Leu27,Lys28]-Glucagon amide] (I: H-H[Aib]QGTFTSDLSKYLESKRAREFVQWLLKT-NH2 / II: {C18 diacid-γGlu-γGlu}-SGESG; amide I:28-II:C; N-terminus assumed), 45 h.
Turning to `CC(C)C[C@H](NC(=O)[C@H](Cc1ccc(O)cc1)NC(=O)[C@H](CCCNC(=N)N)NC(=O)[C@H](CO)NC(=O)[C@H](CC(C)C)NC(=O)[C@H](CC(=O)O)NC(=O)[C@H](CO)NC(=O)[C@@H](NC(=O)[C@H](Cc1ccccc1)NC(=O)[C@@H](NC(=O)CNC(=O)[C@H](CCC(N)=O)NC(=O)C(C)(C)NC(=O)[C@@H](N)Cc1c[nH]cn1)[C@@H](C)O)[C@@H](C)O)C(=O)N[C@@H](CC(=O)O)C(=O)N[C@@H](C)C(=O)N[C@@H](CCCNC(=N)N)C(=O)N[C@@H](CCCNC(=N)N)C(=O)N[C@@H](C)C(=O)N[C@@H](CCCNC(=N)N)C(=O)N[C@@H](CC(=O)O)C(=O)N[C@@H](Cc1ccccc1)C(=O)N[C@H](C(=O)N[C@@H](CCC(N)=O)C(=O)N[C@@H](Cc1c[nH]c2ccccc12)C(=O)N[C@@H](CC(C)C)C(=O)N[C@@H](CC(C)C)C(=O)N[C@@H](CCCCNC(=O)CC[C@H](NC(=O)CC[C@H](NC(=O)CC[C@H](NC(=O)CCCCCCCCCCCCCCCCC(=O)O)C(=O)O)C(=O)O)C(=O)O)C(=O)N[C@H](C(N)=O)[C@@H](C)O)C(C)C` [Example 62, N^ε28-[(4S)-4-carboxy-4-[[(4S)-4-carboxy-4-[[(4S)-4-carboxy-4-(17-carboxyheptadecanoylamino)butanoyl]amino]butanoyl]amino]butanoyl]-[Aib2,Leu10,Arg12,Ala16,Arg20,Leu27,Lys28]-Glucagon amide] (H-H[Aib]QGTFTSDLSRYLDARRARDFVQWLLK([γGlu-γGlu-γGlu-C18 diacid])T-NH2; N-terminus assumed), the concentration giving a half-maximal response (EC50) at human GLP-1 receptor was 8 pM.
